# According to patent publication US6844020B2, “Solutions of carotenoids for use in foods and personal care products” (Kemin Foods, L.C., priority 2002, dated 2005):
# Where “and” joins values, the source holds several entries; their conditions need not be identical. Equal values may be shown once. Read-outs that look alike come from different tables or passages of the source.
# Tests used:
# [1] = Astaxanthin solubility in essential oils; format: physicochemical
# Description: (§1) Astaxanthin was dissolved in each oil until visibly saturated. The sample was then blanketed with argon and sonicated for ten minutes. When the sample was completely saturated, the solution was transferred to a micro centrifuge tube and centrifuged at 14,000 rpm for 10 minutes. The clarified oil was then analyzed for astaxanthin content. The method for analyzing lutein crystals was used to analyze astaxanthin, however, a few modifications were made. First, methylene chloride was substituted for […] when dissolving the samples. […] When determining total carotenoids, the absorbance was measured at 470 nm rather than 446 nm. [formula] [formula] [formula] Canthaxanthin in Essentials Oils
# [2] = Beta-carotene solubility in essential oils; format: physicochemical
# Description: Beta-carotene was dissolved in each oil until visibly saturated. The sample was then blanketed with argon and sonicated for ten minutes. When the sample was completely saturated, the solution was transferred to a micro centrifuge tube and centrifuged at 14,000 rpm for 10 minutes. The clarified oil was then analyzed for beta-carotene content. The method for analyzing lutein crystals, with a few modifications, was used to analyze beta-carotene. First, methylene chloride was substituted for […] when dissolving the samples. Second, when determining total carotenoids, the absorbance was measured at 453 nm rather than 446 nm. [formula] [formula] [formula]
# % Beta Carotene=% Carotenoids*(% Total HPLC area of Beta Carotene/100)
# [3] = cited from earlier work
# [4] = format: physicochemical
# Description: as §1, with “Canthaxanthin” for “Astaxanthin”, “microcentrifuge” for “micro centrifuge”, “canthaxanthin” for “astaxanthin”, “canthaxanthin,” for “astaxanthin,”, “466” for “470”, “Results and Discussion” for “[formula] Canthaxanthin in Essentials Oils”
# [5] = Zeaxanthin solubility in essential oils; format: physicochemical
# Description: as §1, with “Zeaxanthin” for “Astaxanthin”, “zeaxanthin” for “astaxanthin”, “zeaxanthin,” for “astaxanthin,”, “450” for “470”, “[formula]” for “[formula] Canthaxanthin in Essentials Oils”
# % Zeaxanthin=% Carotenoids*(% Total HPLC area of zeaxanthin/100)
# [6] = consumption of lutein and zeaxanthin; Seddon et al., 1994; cited from earlier work
# [7] = in Carvacrol (clear oil), 282-197, lot 13403CI
# [8] = in Spearmint oil, 05-6250-11, lot SP43-0208
# [9] = in Thyme oil, White, 05-6275-01, lot TLC11-T049
# [10] = in Bay oil, 50-6025-01, lot BA41-0484
# [11] = in Cornmint, redistilled oil, 50-6100-01, lot CR43-0155
# [12] = in Peppermint, Yakima redistilled oil, 50-6225-21, lot PY43-0157
# [13] = in Spearmint, redistilled oil, 50-6250-11, lot 39SR-0163
# [14] = in Tea Tree oil, 50-6270-01, lot TX43-0146
# [15] = in Thyme, Pure oil, 50-6275-04, lot TP41-0053
# [16] = in Thyme, Red oil, 50-6275-02, lot TR43-0158
# [17] = in Thyme, White oil, 50-6275-01, lot TLC11-T477
# [18] = in Thyme, White (NOW) oil, 7635
compound,measurement,setting,value
"CC1=C(/C=C/C(C)=C/C=C/C(C)=C/C=C/C=C(C)/C=C/C=C(C)/C=C/C2=C(C)C(=O)[C@@H](O)CC2(C)C)C(C)(C)C[C@H](O)C1=O [Astaxanthin, astaxanthin]",% Astaxanthin by HPLC,[1]; [7],0.2420%
same,% Astaxanthin by HPLC,"[1]; in Carvacrol (clear oil), 282-197, lot 13403CI, listed as astaxanthin",~0.24%
same,% Astaxanthin by HPLC,[1]; [8],0.0301%
same,% Astaxanthin by HPLC,[1]; [9],0.1876%
same,times less soluble than lutein,[1]; in spearmint oil,33 times
same,times less soluble than lutein,[1]; in white thyme oil,16 times
"CC1=C(/C=C/C(C)=C/C=C/C(C)=C/C=C/C=C(C)/C=C/C=C(C)/C=C/C2=C(C)CCCC2(C)C)C(C)(C)CCC1 [Beta-carotene, β-carotene]",% Beta-Carotene,[2]; [10],0.16% and 0.163%
same,% Beta-Carotene,[2]; [11],0.252%
same,% Beta-Carotene,[2]; [12],0.263%
same,% Beta-Carotene,[2]; [13],0.532%
same,% Beta-Carotene,[2]; [14],0.427%
same,% Beta-Carotene,[2]; [15],0.245%
same,% Beta-Carotene,[2]; [16],0.267%
same,% Beta-Carotene,[2]; [17],0.273%
same,reported solubility,"[3]; in ""fats and oils""",0.05-0.08%
"CC1=C(/C=C/C(C)=C/C=C/C(C)=C/C=C/C=C(C)/C=C/C=C(C)/C=C/C2=C(C)C(=O)CCC2(C)C)C(C)(C)CCC1=O [Canthaxanthin, canthaxanthin]",% Canthaxanthin by HPLC,[4]; [7],0.0020%
same,% Canthaxanthin by HPLC,[4]; [8],0.0028%
same,% Canthaxanthin by HPLC,[4]; [9],0.0036%
"CC1=C(/C=C/C(C)=C/C=C/C(C)=C/C=C/C=C(C)/C=C/C=C(C)/C=C/C2=C(C)C[C@@H](O)CC2(C)C)C(C)(C)C[C@H](O)C1 [Zeaxanthin, zeaxanthin]",reported solubility,[3]; in corn oil,0.004%
same,% Carotenoids,[5]; [10],0.281%
same,% Zeaxanthin,[5]; [10],0.276%
same,% Carotenoids,[5]; [11],0.403%
same,% Zeaxanthin,[5]; [11],0.397%
same,% Carotenoids,[5]; [12],0.452%
same,% Zeaxanthin,[5]; [12],0.446%
same,% Carotenoids,[5]; [13],0.374%
same,% Zeaxanthin,[5]; [13],0.369%
same,% Carotenoids,"[5]; in Tea Tree (NOW) oil, 7625",0.398%
same,% Zeaxanthin,"[5]; in Tea Tree (NOW) oil, 7625",0.394%
same,% Carotenoids,[5]; [14],0.364%
same,% Zeaxanthin,[5]; [14],0.361%
same,% Carotenoids,[5]; [15],0.920%
same,% Zeaxanthin,[5]; [15],0.916%
same,% Carotenoids,[5]; [16],1.063%
same,% Zeaxanthin,[5]; [16],1.059%
same,% Carotenoids,[5]; [18],0.784%
same,% Zeaxanthin,[5]; [18],0.782%
same,% Carotenoids,[5]; [17],1.049%
same,% Zeaxanthin,[5]; [17],1.043%
same,zeaxanthin solubility,[5]; in all of the oils except the thyme oils,less than 1%
same,zeaxanthin solubility,[5]; in thyme oil,~1%
same,reduction in age-related macular degeneration,[6],57%
